Structures are written as SMILES.

A word on the Ki: it is the dissociation constant of the complex between target and ligand, obtained from inhibition or displacement.

Assay [1] can be described thus: Displacement of [125I]CGRP form CGRP receptor in human SK-N-MC cell membrane by competitive binding assay in the absence of MgCl2. (In general: In a radioligand displacement assay an active substance lowers the binding of a labelled ligand.)
A short description of assay [2]: Displacement of [125I]CGRP form CGRP receptor in human SK-N-MC cell membrane by competitive binding assay.

In the case of `CC(C)C[C@H](NC(=O)CNC(=O)[C@H](C)NC(=O)[C@H](CC(C)C)NC(=O)[C@H](CCCN=C(N)N)NC(=O)[C@H](Cc1cnc[nH]1)NC(=O)[C@@H](NC(=O)[C@@H](NC(=O)[C@H](CS)NC(=O)[C@@H](NC(=O)[C@H](C)NC(=O)[C@@H](NC(=O)[C@H](CC(=O)O)NC(=O)[C@H](CS)NC(=O)[C@H](C)N)[C@@H](C)O)[C@@H](C)O)C(C)C)[C@@H](C)O)C(=O)N[C@@H](CC(C)C)C(=O)N[C@@H](CO)C(=O)N[C@@H](CCCN=C(N)N)C(=O)N[C@@H](CO)C(=O)NCC(=O)NCC(=O)N[C@H](C(=O)N[C@H](C(=O)N[C@@H](CCCCN)C(=O)N[C@@H](CC(N)=O)C(=O)N[C@@H](CC(N)=O)C(=O)N[C@@H](Cc1ccccc1)C(=O)N[C@H](C(=O)N1CCC[C@H]1C(=O)N[C@H](C(=O)N[C@@H](CC(N)=O)C(=O)N[C@H](C(=O)NCC(=O)N[C@@H](CO)C(=O)N[C@@H](CCCCN)C(=O)N[C@@H](C)C(=O)N[C@@H](Cc1ccccc1)C(N)=O)C(C)C)[C@@H](C)O)C(C)C)C(C)C)C(C)C`, the Ki in assay [1] and in assay [2] was 0.01 nM in each case.
